{"source": "patent US10434112B2", "about": "“Use of agonists of formyl peptide receptor 2 for treating dermatological diseases” (Allergan, Inc., priority 2013, dated 2019)"}
{"biological_target": "human FPR2 receptor (Homo sapiens (Human), UniProt P25090)", "sequence (P25090 whole entry)": "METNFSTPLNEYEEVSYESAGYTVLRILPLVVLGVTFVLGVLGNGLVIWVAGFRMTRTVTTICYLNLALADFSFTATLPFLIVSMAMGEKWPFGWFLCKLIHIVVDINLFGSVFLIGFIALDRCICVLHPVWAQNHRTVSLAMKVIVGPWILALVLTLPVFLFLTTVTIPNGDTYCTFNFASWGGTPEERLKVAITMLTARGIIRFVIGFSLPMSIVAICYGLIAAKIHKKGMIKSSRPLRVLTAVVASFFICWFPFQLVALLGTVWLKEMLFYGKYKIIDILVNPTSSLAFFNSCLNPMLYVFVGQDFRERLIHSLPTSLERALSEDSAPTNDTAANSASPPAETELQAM", "assay": "FLIPR Ca+2 response in HEK-Gα16 cells stably expressing the human FPR2 receptor", "type": "cell-based", "design": "FPR2 (% eff): unit not given here", "settings": "Table 4", "procedure": "(§1) FLIPR: HEK-Gα16 cells stably expressing the human FPR2 receptor was utilized. Cells were plated into 384-well poly-D-lysine coated plates at a density of 18,000 cells per well one day prior to use. The growth media was DMEM medium supplemented with 10% fetal bovine serum (FBS), 1% antibiotic-antimycotic, 50 μg/ml hygromycin, and 400 μg/ml geneticin. On the day of the experiment, the cells were washed twice with Hank's Balanced Salt Solution supplemented with 20 mM HEPES (HBSS/hepes buffer). The cells were then dye loaded with 2 μM Fluo-4 diluted in the HBSS/Hepes buffer and incubated at 37° C. for 40 minutes. Extracellular dye was removed by washing the cell plates four times prior to placing the plates in the FLIPR (Fluorometric Imaging Plate Reader, Molecular Devices). Ligands were diluted in HBSS/Hepes buffer and prepared in 384-well microplates. Data for Ca^+2 responses were obtained in relative fluorescence units.", "units": {"EC50": "nM"}}
{"smiles": "CC1(CCc2cccc(O)c2)NC(=O)N(NC(=O)Nc2ccc(Br)cc2)C1=O", "note": "(stereo not drawn) [Compound 108, 1-(4-bromophenyl)-3-{4-[2-(3-hydroxyphenyl)ethyl]-4-methyl-2,5-dioxoimidazolidin-1-yl}urea]", "EC50": 2.1}
{"smiles": "CCC(CC)(NC(=O)Nc1ccc(Br)cc1)C(=O)NCC(=O)O", "note": "[Compound 113]", "EC50": 18.7}
{"smiles": "CSc1ccc(NC(=O)N[C@@H](CC(C)C)C(=O)NCC(=O)O)cc1", "note": "[Compound 130, {[(2S)-4-methyl-2-({[4-(methylsulfanyl)phenyl]carbamoyl}amino)pentanoyl]amino}acetic acid]", "EC50": 3}
{"biological_target": "human FPR2 receptor (Homo sapiens (Human), UniProt P25090)", "assay": "FLIPR Ca+2 response in HEK-Gα16 cells stably expressing the human FPR2 receptor", "type": "cell-based", "design": "FPR2 (% eff): unit not given here", "settings": "Table 4; value in brackets, given mostly as fraction", "procedure": "as §1"}
{"smiles": "CC1(CCc2cccs2)NC(=O)N(NC(=O)Nc2ccc(Br)cc2)C1=O", "note": "(stereo not drawn) [Compound 88, 1-(4-bromophenyl)-3-{4-methyl-2,5-dioxo-4-[2-(thiophen-2-yl)ethyl]imidazolidin-1-yl}urea]", "FPR2 (% eff)": 0.94}
{"smiles": "CC1(CCc2ccc(O)cc2)NC(=O)N(NC(=O)Nc2ccc(Br)cc2F)C1=O", "note": "(stereo not drawn) [Compound 89, 1-(4-bromo-2-fluorophenyl)-3-{4-[2-(4-hydroxyphenyl)ethyl]-4-methyl-2,5-dioxoimidazolidin-1-yl}urea]", "FPR2 (% eff)": 0.85}
{"smiles": "CC(C)C[C@H](NC(=O)Nc1ccc(Br)cc1)C(=O)N[C@H](C(=O)O)C(C)C", "note": "[Compound 91, (2S)-2-{[(2S)-2-{[(4-bromophenyl)carbamoyl]amino}-4-methylpentanoyl]amino}-3-methylbutanoic acid]", "FPR2 (% eff)": 0.97}
{"smiles": "CC(C)C[C@H](NC(=O)Nc1ccc(Br)cc1)C(=O)N[C@H](C(N)=O)C(C)C", "note": "[Compound 92, (2S)-N-[(2S)-1-amino-3-methyl-1-oxobutan-2-yl]-2-{[(4-bromophenyl)carbamoyl]amino}-4-methylpentanamide]", "FPR2 (% eff)": 1.0}
{"smiles": "CC(C)C[C@H](NC(=O)Nc1ccc(Br)cc1)C(=O)NCC(C)(C)O", "note": "[Compound 93, (2S)-2-{[(4-bromophenyl)carbamoyl]amino}-N-(2-hydroxy-2-methylpropyl)-4-methylpentanamide]", "FPR2 (% eff)": 0.93}
{"smiles": "CC(C)C[C@H](NC(=O)Nc1ccc(Br)cc1)C(=O)NC(CO)CO", "note": "[Compound 94, (2S)-2-{[(4-bromophenyl)carbamoyl]amino}-N-(1,3-dihydroxypropan-2-yl)-4-methylpentanamide]", "FPR2 (% eff)": 0.96}
{"smiles": "CC(C)C[C@H](NC(=O)Nc1ccc(Br)cc1)C(=O)N[C@H](C)CO", "note": "[Compound 96, (2S)-2-{[(4-bromophenyl)carbamoyl]amino}-N-[(2R)-1-hydroxypropan-2-yl]-4-methylpentanamide]", "FPR2 (% eff)": 1.0}
{"smiles": "Cc1ccc(CCC2(C)NC(=O)N(NC(=O)Nc3ccc(Br)cc3)C2=O)o1", "note": "(stereo not drawn) [Compound 97, 1-(4-bromophenyl)-3-{4-methyl-4-[2-(5-methylfuran-2-yl)ethyl]-2,5-dioxoimidazolidin-1-yl}urea]", "FPR2 (% eff)": 0.95}
{"smiles": "CC1(CCc2ccc(O)c(F)c2)NC(=O)N(NC(=O)Nc2ccc(Br)cc2F)C1=O", "note": "(stereo not drawn) [Compound 98, 1-(4-bromo-2-fluorophenyl)-3-{4-[2-(3-fluoro-4-hydroxyphenyl)ethyl]-4-methyl-2,5-dioxoimidazolidin-1-yl}urea]", "FPR2 (% eff)": 0.91}
{"smiles": "CC1(CCc2ccc(O)c(F)c2)NC(=O)N(NC(=O)Nc2ccc(Br)cc2)C1=O", "note": "(stereo not drawn) [Compound 99, 1-(4-bromophenyl)-3-{4-[2-(3-fluoro-4-hydroxyphenyl)ethyl]-4-methyl-2,5-dioxoimidazolidin-1-yl}urea]", "FPR2 (% eff)": 1.0}
{"smiles": "CCC[C@H](NC(=O)[C@H](CC(C)C)NC(=O)Nc1ccc(Br)cc1)C(=O)OC(C)(C)C", "note": "[Compound 100, tert-butyl (2S)-2-{[(2S)-2-{[(4-bromophenyl)carbamoyl]amino}-4-methylpentanoyl]amino} pentanoate]", "FPR2 (% eff)": 1.0}
{"smiles": "CCC[C@H](NC(=O)[C@H](CC(C)C)NC(=O)Nc1ccc(Br)cc1)C(=O)O", "note": "[Compound 101, (2S)-2-{[(2S)-2-{[(4-bromophenyl)carbamoyl]amino}-4-methylpentanoyl]amino} pentanoic acid]", "FPR2 (% eff)": 0.95}
{"smiles": "CCC[C@H](NC(=O)[C@H](CC(C)C)NC(=O)Nc1ccc(Br)cc1)C(N)=O", "note": "[Compound 102, (2S)-N-[(2S)-1-amino-1-oxopentan-2-yl]-2-{[(4-bromophenyl)carbamoyl]amino}-4-methylpentanamide]", "FPR2 (% eff)": 0.99}
{"smiles": "CC(C)C[C@H](NC(=O)Nc1ccc(Br)cc1)C(=O)N[C@H](C(=O)O)c1ccccc1", "note": "[Compound 103, (2S)-{[(2S)-2-{[(4-bromophenyl)carbamoyl]amino}-4-methylpentanoyl]amino} (phenyl)ethanoic acid]", "FPR2 (% eff)": 1.0}
{"smiles": "CC(C)C[C@H](NC(=O)Nc1ccc(Br)cc1)C(=O)NCc1nnn[nH]1", "note": "[Compound 104, (2S)-2-{[(4-bromophenyl)carbamoyl]amino}-4-methyl-N-(1H-tetrazol-5-ylmethyl)pentanamide]", "FPR2 (% eff)": 0.81}
{"smiles": "CCOP(=O)(O)CNC(=O)[C@H](CC(C)C)NC(=O)Nc1ccc(Br)cc1", "note": "[Compound 105, ethyl hydrogen ({[(2S)-2-{[(4-bromophenyl)carbamoyl]amino}-4-methylpentanoyl]amino}methyl)phosphonate]", "FPR2 (% eff)": 0.88}
{"smiles": "CC1(CCc2ccccc2O)NC(=O)N(NC(=O)Nc2ccc(Br)cc2F)C1=O", "note": "(stereo not drawn) [Compound 106, 1-(4-bromo-2-fluorophenyl)-3-[4-[2-[2-hydroxyphenyl)ethyl]-4-methyl-2,5-dioxoimidazolidin-1-yl}urea]", "FPR2 (% eff)": 0.91}
{"smiles": "CC1(CCc2cccc(O)c2)NC(=O)N(NC(=O)Nc2ccc(Br)cc2F)C1=O", "note": "(stereo not drawn) [Compound 107, 1-(4-bromo-2-fluorophenyl)-3-{4-[2-(3-hydroxyphenyl)ethyl]-4-methyl-2,5-dioxoimidazolidin-1-yl}urea]", "FPR2 (% eff)": 0.79}
{"smiles": "CC1(CCc2cccc(O)c2)NC(=O)N(NC(=O)Nc2ccc(Br)cc2)C1=O", "note": "(stereo not drawn) [Compound 108, 1-(4-bromophenyl)-3-{4-[2-(3-hydroxyphenyl)ethyl]-4-methyl-2,5-dioxoimidazolidin-1-yl}urea]", "FPR2 (% eff)": 100}
{"smiles": "CC1(CCc2ccccc2O)NC(=O)N(NC(=O)Nc2ccc(Br)cc2)C1=O", "note": "(stereo not drawn) [Compound 109, 1-(4-bromophenyl)-3-{4-[2-(2-hydroxyphenyl)ethyl]-4-methyl-2,5-dioxoimidazolidin-1-yl}urea]", "FPR2 (% eff)": 0.93}
{"smiles": "CC(C)CC(C)(NC(=O)Nc1ccc(Br)cc1)C(=O)O", "note": "(stereo not drawn) [Compound 110, 2-{[(4-bromophenyl)carbamoyl]amino}-2,4-dimethylpentanoic acid]", "FPR2 (% eff)": 0.98}
{"smiles": "CC(C)CC(C)(NC(=O)Nc1ccc(Br)cc1)C(=O)NCC(=O)O", "note": "(stereo not drawn) [Compound 111, [(2-{[(4-bromophenyl)carbamoyl]amino}-2,4-dimethylpentanoyl)amino] acetic acid]", "FPR2 (% eff)": 0.99}
{"smiles": "CCC(CC)(NC(=O)Nc1ccc(Br)cc1)C(=O)NCC(=O)O", "note": "[Compound 113]", "FPR2 (% eff)": 100}
{"smiles": "CCOP(=O)(CNC(=O)[C@@H](NC(=O)Nc1ccc(Br)cc1)[C@@H](C)CC)OCC", "note": "[Compound 114, diethyl ({[(2S,3S)-2-{[(4-bromophenyl)carbamoyl]amino}-3-methylpentanoyl]amino}methyl)phosphonate]", "FPR2 (% eff)": 1.0}
{"smiles": "CCOP(=O)(O)CNC(=O)[C@@H](NC(=O)Nc1ccc(Br)cc1)[C@@H](C)CC", "note": "[Compound 115, ethyl hydrogen ({[(2S,3S)-2-{[(4-bromophenyl)carbamoyl]amino}3-methylpentanoyl]amino}methyl)phosphonate]", "FPR2 (% eff)": 0.88}
{"smiles": "CC(C)C[C@H](NC(=O)Nc1ccc(Br)cc1)C(=O)NCc1cc(O)no1", "note": "[Compound 116, (2S)-2-{[(4-bromophenyl)carbamoyl]amino}-N-[(3-hydroxy-1,2-oxazol-5-yl)methyl]-4-methylpentanamide]", "FPR2 (% eff)": 1.0}
{"smiles": "CCC[C@H](NC(=O)Nc1ccc(Br)cc1)C(=O)NCP(=O)(OCC)OCC", "note": "[Compound 117, diethyl ({[(2S)-2-{[(4-bromophenyl)carbamoyl]amino}pentanoyl]amino}methy) phosphonate]", "FPR2 (% eff)": 1.0}
{"smiles": "CCOP(=O)(CNC(=O)[C@H](Cc1ccccc1)NC(=O)Nc1ccc(Br)cc1)OCC", "note": "[Compound 118, diethyl ({[(2S)-2-{[(4-bromophenyl)carbamoyl]amino}-3-phenylpropanoyl]amino}methyl)phosphonate]", "FPR2 (% eff)": 0.93}
{"smiles": "CC(C)C[C@H](NC(=O)Nc1ccc(Br)cc1)C(=O)NCC(=O)N(C)C", "note": "[Compound 120, (2S)-2-{[(4-bromophenyl)carbamoyl]amino}-N-[2-(dimethylamino)-2-oxoethyl]-4-methylpentanamide]", "FPR2 (% eff)": 0.99}
{"smiles": "CC(C)C[C@H](NC(=O)Nc1ccc(I)cc1)C(=O)O", "note": "[Compound 121, (2S)-2-{[(4-iodophenyl)carbamoyl]amino}-4-methylpentanoic acid]", "FPR2 (% eff)": 0.93}
{"smiles": "CCC[C@H](NC(=O)Nc1ccc(Br)cc1)C(=O)NCP(=O)(O)OCC", "note": "[Compound 123, ethyl hydrogen ({[(2S)-2-{[(4-bromophenyl)carbamoyl]amino}pentanoyl]amino}methyl) phosphonate]", "FPR2 (% eff)": 0.96}
{"smiles": "CCC[C@H](NC(=O)Nc1ccc(Br)cc1)C(=O)NCP(=O)(OC(C)C)OC(C)C", "note": "[Compound 125, dipropan-2-yl ({[(2S)-2-{[(4-bromophenyl)carbamoyl]amino}pentanoyl]amino}methyl) phosphonate]", "FPR2 (% eff)": 1.0}
{"smiles": "CCOP(=O)(O)CNC(=O)[C@H](Cc1ccccc1)NC(=O)Nc1ccc(Br)cc1", "note": "[Compound 126, ethyl hydrogen ({[(2S)-2-{[(4-bromophenyl)carbamoyl]amino}3-phenylpropanoyl]amino}methyl)phosphonate]", "FPR2 (% eff)": 1.0}
{"smiles": "CC(C)C[C@H](NC(=O)Nc1ccc(Br)cc1)C(=O)NCS(=O)(=O)O", "note": "[Compound 127, {[(2S)-2-{[(4-bromophenyl)carbamoyl]amino}4-methylpentanoyl]amino} methanesulfonic acid]", "FPR2 (% eff)": 0.91}
{"smiles": "CSc1ccc(NC(=O)N[C@@H](CC(C)C)C(=O)O)cc1", "note": "[Compound 128, (2S)-4-methyl-2-({[4-(methylsulfanyl)phenyl]carbamoyl}amino)pentanoic acid]", "FPR2 (% eff)": 0.92}
{"smiles": "CSc1ccc(NC(=O)N[C@@H](CC(C)C)C(=O)NCC(=O)O)cc1", "note": "[Compound 130, {[(2S)-4-methyl-2-({[4-(methylsulfanyl)phenyl]carbamoyl}amino)pentanoyl]amino}acetic acid]", "FPR2 (% eff)": 1.0}
